pIC50: −log10 of the molar value.
Test system: not listed separately
Assay: Competitive inhibition of PKA expressed in Escherichia coli assessed as fluorescence labeled peptide substrate phosphorylation after 60 mins in presence of ATP

SMILES	pIC50
CC(C)NC[C@@H](C(=O)N1CCN(c2ncnc3c2C(C)(C)CC3)CC1)c1ccc(Cl)cc1	< 5.70
C[C@@H]1C[C@@H](O)c2ncnc(N3CCN(C(=O)[C@@H](c4ccc(Cl)cc4)[C@@H]4COCCN4)CC3)c21	5.87
CC(C)NC[C@@H](C(=O)N1CCN(c2ncnc3c2[C@H](C)CC3(F)F)CC1)c1ccc(Cl)cc1	< 5.00
C[C@@H]1C[C@@H](O)c2ncnc(N3CCN(C(=O)[C@H](CNCC4CC4)c4ccc(C(F)(F)F)c(F)c4)CC3)c21	6.99
CC(C)NC[C@@H](C(=O)N1CCN(c2ncnc3c2[C@H](C)C[C@@H]3F)CC1)c1ccc(Cl)cc1	6.27

Continued by rising pIC50, values first:

pIC50	SMILES
5.67	CC(C)N(C)C[C@@H](C(=O)N1CCN(c2ncnc3c2[C@H](C)C[C@H]3O)CC1)c1ccc(Cl)cc1
6.00	COCCNC[C@@H](C(=O)N1CCN(c2ncnc3c2[C@H](C)C[C@H]3O)CC1)c1ccc(Cl)cc1
6.18	CO[C@H]1CC[C@H](NC[C@@H](C(=O)N2CCN(c3ncnc4c3[C@H](C)C[C@H]4O)CC2)c2ccc(Cl)cc2)CC1

Target: T1, RAC-alpha serine/threonine-protein kinase (Homo sapiens, UniProt P31749)
T1 sequence (P31749 whole entry): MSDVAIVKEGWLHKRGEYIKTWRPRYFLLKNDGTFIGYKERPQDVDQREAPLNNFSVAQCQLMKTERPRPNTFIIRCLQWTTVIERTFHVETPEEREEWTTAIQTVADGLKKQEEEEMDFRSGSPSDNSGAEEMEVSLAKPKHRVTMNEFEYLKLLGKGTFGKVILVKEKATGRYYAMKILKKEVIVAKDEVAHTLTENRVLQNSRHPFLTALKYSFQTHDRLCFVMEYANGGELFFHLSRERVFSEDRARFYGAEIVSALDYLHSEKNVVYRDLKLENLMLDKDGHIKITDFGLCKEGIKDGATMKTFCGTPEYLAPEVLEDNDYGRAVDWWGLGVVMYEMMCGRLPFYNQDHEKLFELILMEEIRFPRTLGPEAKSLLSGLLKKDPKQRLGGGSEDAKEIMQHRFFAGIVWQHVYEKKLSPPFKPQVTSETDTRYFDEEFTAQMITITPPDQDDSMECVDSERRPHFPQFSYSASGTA
Description: Competitive inhibition of wild-type full-length amino-terminal polyhistidine-tagged human Akt1 expressed in recombinant baculovirus system using fluorescence labeled substrate after 60 mins by fluorescence polarization assay in presence of ATP

SMILES	pIC50
C[C@@H]1C[C@@H](O)c2ncnc(N3CCN(C(=O)[C@@H](c4ccc(Cl)cc4)[C@@H]4COCCN4)CC3)c21	7.92
CC(C)NC[C@@H](C(=O)N1CCN(c2ncnc3c2[C@H](C)CC3(F)F)CC1)c1ccc(Cl)cc1	5.93

Other lines, results leading:

pIC50	SMILES
7.74	CC(C)N(C)C[C@@H](C(=O)N1CCN(c2ncnc3c2[C@H](C)C[C@H]3O)CC1)c1ccc(Cl)cc1
8.10	COCCNC[C@@H](C(=O)N1CCN(c2ncnc3c2[C@H](C)C[C@H]3O)CC1)c1ccc(Cl)cc1
8.30	CO[C@H]1CC[C@H](NC[C@@H](C(=O)N2CCN(c3ncnc4c3[C@H](C)C[C@H]4O)CC2)c2ccc(Cl)cc2)CC1

Target: T1, RAC-alpha serine/threonine-protein kinase
Remark: another data set of the same source
Description: Inhibition of Akt1 in human LNCAP cells assessed as phosphorylation of PRAS40 at Thr246 after 1.5 hrs

SMILES	pIC50
C[C@@H]1C[C@@H](O)c2ncnc(N3CCN(C(=O)[C@@H](c4ccc(Cl)cc4)[C@@H]4COCCN4)CC3)c21	6.07
CC(C)NC[C@@H](C(=O)N1CCN(c2ncnc3c2[C@H](C)CC3(F)F)CC1)c1ccc(Cl)cc1	5.07

Next, values leading:

pIC50	SMILES
6.86	CC(C)N(C)C[C@@H](C(=O)N1CCN(c2ncnc3c2[C@H](C)C[C@H]3O)CC1)c1ccc(Cl)cc1
6.42	COCCNC[C@@H](C(=O)N1CCN(c2ncnc3c2[C@H](C)C[C@H]3O)CC1)c1ccc(Cl)cc1
6.88	CO[C@H]1CC[C@H](NC[C@@H](C(=O)N2CCN(c3ncnc4c3[C@H](C)C[C@H]4O)CC2)c2ccc(Cl)cc2)CC1

Target: RAC-gamma serine/threonine-protein kinase (Homo sapiens, UniProt Q9Y243)
Sequence (Q9Y243 whole entry): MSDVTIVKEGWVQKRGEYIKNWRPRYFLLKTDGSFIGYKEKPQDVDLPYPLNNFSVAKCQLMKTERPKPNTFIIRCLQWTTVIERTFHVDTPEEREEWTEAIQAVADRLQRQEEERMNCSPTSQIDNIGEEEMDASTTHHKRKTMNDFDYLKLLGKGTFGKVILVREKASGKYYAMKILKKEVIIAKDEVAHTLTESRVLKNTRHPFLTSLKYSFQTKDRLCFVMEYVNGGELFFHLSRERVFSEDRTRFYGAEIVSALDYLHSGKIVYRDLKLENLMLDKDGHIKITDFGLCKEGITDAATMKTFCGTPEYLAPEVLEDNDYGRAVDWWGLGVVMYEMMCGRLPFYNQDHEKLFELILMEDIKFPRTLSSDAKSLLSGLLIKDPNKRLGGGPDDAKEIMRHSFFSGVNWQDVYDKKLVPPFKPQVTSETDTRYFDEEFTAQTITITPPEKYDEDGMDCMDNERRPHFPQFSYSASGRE
Description: Competitive inhibition of wild-type full-length amino-terminal polyhistidine-tagged human Akt3 expressed in recombinant baculovirus system using fluorescence labeled Crosstide as substrate after 60 mins by fluorescence polarization assay in presence of ATP

SMILES	pIC50
CC(C)NC[C@@H](C(=O)N1CCN(c2ncnc3c2C(C)(C)CC3)CC1)c1ccc(Cl)cc1	< 5.70
C[C@@H]1C[C@@H](O)c2ncnc(N3CCN(C(=O)[C@@H](c4ccc(Cl)cc4)[C@@H]4COCCN4)CC3)c21	7.59
C[C@@H]1C[C@@H](O)c2ncnc(N3CCN(C(=O)[C@H](CNCC4CC4)c4ccc(C(F)(F)F)c(F)c4)CC3)c21	8.70
CC(C)NC[C@@H](C(=O)N1CCN(c2ncnc3c2[C@H](C)C[C@@H]3F)CC1)c1ccc(Cl)cc1	7.64

Other lines, results leading:

pIC50	SMILES
7.89	COCCNC[C@@H](C(=O)N1CCN(c2ncnc3c2[C@H](C)C[C@H]3O)CC1)c1ccc(Cl)cc1
8.40	CO[C@H]1CC[C@H](NC[C@@H](C(=O)N2CCN(c3ncnc4c3[C@H](C)C[C@H]4O)CC2)c2ccc(Cl)cc2)CC1
